Test results taken from a melting point compilation (Tetko et al.; mined from patent text by program, amines drawn as free bases though some values may be those of a salt).

Compound	melting point [°C]
CP(C)(=O)COC(=O)c1ccccc1Nc1cccc(C(F)(F)F)c1	85
COc1ccc(Oc2cn(C)cc(-c3cccc(C(F)(F)F)c3)c2=O)cc1	119 to 120
CC(=O)Nc1ccc2c(c1)cc(C(=O)c1ccc(C)cc1)n2C	211 to 213
Clc1ccccc1-c1cc(-c2ccccc2)c(-c2ccccc2)s1	103 to 107
CCOC(=O)c1n[nH]c2c(=S)[nH]c3cc(Cl)ccc3c(=O)c12	248 to 253
CNC(=O)c1cc(-c2ccc(OC)cc2)nn(CCO)c1=O	160 to 161
CC(C)c1ccc(N(Cc2cnn(CCN(C)C)c2)C(=O)C2CCCc3c(O)cccc32)cc1 (stereo unspecified)	92
Cc1cccc(-c2c(CC(=O)Nc3ccc(F)cc3C(F)(F)F)c(=O)oc3cc4c(cc23)CC=C4)c1	196 to 197
O=c1oc(-c2cccc(C(F)(F)F)c2)ns1	85 to 86.5
Cc1cc(OCc2ccccc2)nc(S(C)(=O)=O)n1	57 to 60
Cc1c(C)c(N2C(=O)c3cc(Cl)c(Cl)cc3C2=O)c(C)c2c1OC(C)(C)C2c1ccc(C(C)C)cc1 (stereo unspecified)	237 to 239
CCc1nnc(-c2ccc(N(C)C)c(C)c2)n1-c1ccc(OC)cc1	131
N#Cc1c(C2CC2)nn(-c2c(Cl)cc(C(F)(F)F)cc2Cl)c1N	197 to 199
Nc1ncc(Cl)nc1Cl	117 to 118
OCC(O)COc1ccc(Br)cc1 (stereo unspecified)	69 to 75
N#CC(C(=O)c1ccc(-c2ccc(Cl)cc2)cc1)=C1CCCCN1	134
Cc1nsc(-c2ccc(Cl)nn2)n1	180
Cc1c(Cl)cccc1N=Cc1ccccc1Cl	83 to 85
CC(C)(C)OC(=O)N[C@H](CO)Cc1ccc(-c2ccccc2)cc1	116
Cc1cc(-c2cc(CN3CCN(C)CC3)c(=O)n(Cc3ccc(Cl)cc3)n2)ccc1F	133 to 134
OC(c1ccccc1)(c1ccccn1)C1CCN(Cc2ccccc2)CC1 (stereo unspecified)	142 to 143
COc1ccc2c(c1)C(=O)C1(O)c3ccc(C(C)C)cc3OC21O (stereo unspecified)	98 to 102
Cc1c(NC(=O)CC(C)(C)C)cc2c(c1C)OC(C)(C)C2c1ccc(C(C)C)cc1 (stereo unspecified)	172 to 173
CC(C)(NCC(O)Cn1ccnc1)c1ccc(Cl)cc1 (stereo unspecified)	89 to 91
CN(C)S(=O)(=O)Oc1cccc2c1S(=O)(=O)N=C2C1=C(O)C(C(C)(C)C)N(Cc2ccc(F)cc2)C1=O (stereo unspecified)	116 to 126
Cn1cc2c(cc1=O)CCCC2=O	94 to 97

Compound	melting point [°C]
Nc1ccccc1C(=O)Nc1cccnc1Cl	172 to 175
Cc1cccc(C2(CC(=O)O)CNC(=O)C2)c1 (stereo unspecified)	152 to 154
CC1(C)CCC(C)(C)c2cc(-c3cc(-c4ccc(CO)cc4)ccc3-c3ccccc3)ccc21	134 to 136
CC(=O)NC(C)Cn1cc(-c2ccccc2)c2ccccc2c1=O (stereo unspecified)	177
O=S1(=O)N(CCCN2CCN(c3ccc(F)cc3)CC2)c2cccc3c2N1CCC3	98
Cc1nc2ccc(F)cc2c(=O)n1-c1ccccc1Cl	137 to 138
COC(=O)N(C)c1cn2cc(Sc3ccccc3)ccc2n1	147 to 149
COc1ccc(N(N)c2cc(Cl)nc(Cl)n2)cc1	113 to 115
CC(C)CC(NC(=O)Cc1ccc(NC(=O)Nc2c(Cl)cccc2Cl)cc1)c1ncc(CCC(=O)O)s1 (stereo unspecified)	148 to 150
C=CCc1cc2c(c(CC=C)c1O)CCC(=O)N2CC=C(C)C	133 to 135
C=C1CCC2C3Cc4ccc(O)cc4C2(CCN3CC2CC2)C1 (stereo unspecified)	220 to 223
NS(=O)(=O)Cc1ccc2[nH]cc(CCN3C(=O)c4ccccc4C3=O)c2c1	186 to 188
CC1(C)Cc2cccc(Oc3c(Cl)cc(N)cc3Cl)c2O1	140 to 145
CN1c2ccccc2C(=O)c2ccccc2C12OCCO2	192 to 193
COc1cc(NC2CCN(Cc3ccccc3)CC2)ccc1C(N)=O	155 to 157
CCc1nc(OC)c(NC(=O)N2CCN(c3cc(C)cc(C)c3)CC2)cc1C(=O)Nc1cc(CO)cc(Nc2c3ccccc3nc3ccccc23)c1	178 to 180
COc1ccc(-c2ncc(Cc3ccccc3)nc2-c2ccc(OC)cc2)cc1	107 to 109
CS(=O)(=O)Nc1cccc(Nc2nc(NCCc3c[nH]cn3)c3nc[nH]c3n2)c1	205 to 210
CCOCc1nc2c(N)nc3ccccc3c2n1OC(C)C	179 to 181
CN1CCN(c2c(CO)cnc3c(NC(=O)c4c(Cl)cccc4Cl)cccc23)C1=S	253 to 254
Cc1ccc(S(=O)(=O)N2CCC[C@H]2C(=O)N[C@@H](Cc2ccc(OCCCN3CCN(C)CC3)cc2)C(=O)O)cc1	80 to 83
CCOC(=O)C1=C(C)NC(C)=C(C(=O)OCC)C1c1ccccc1/C=C/C(=O)OC1CCCCC1	175 to 177
COc1nc2ccccc2nc1NC(=O)N1CCN(c2c(C)c(C)cc(C)c2C)CC1	237 to 239
CNC(=O)[C@@H](O)[C@H](Sc1cc(C)ccc1N)c1ccc(C)cc1	168 to 170
CC(C)(CO)Cc1cc(C(C)(C)C)c(O)c(C(C)(C)C)c1	84 to 86
CNC(=NS(C)(=O)=O)NCCCSc1ncc(Br)c(NC(N)=NCC(F)(F)F)n1	166 to 167

Compound	melting point [°C]
CCCOc1ccc(CC(=O)NCC(=O)O)cc1Cl	110 to 112
CC(C)(C)OC(=O)NCCOc1noc2c(C#N)cccc12	91 to 92
COc1cc(C)c([N+](=O)[O-])cc1F	95 to 95.5
Nc1c(F)c(F)c(OC(F)F)c2c1c(=O)c(C(=O)O)cn2C1CC1	284 to 286
O=C(NC(=O)c1ccc(F)cc1Cl)Nc1ccc(C(F)(F)F)cc1F	194
COc1c(CNS(=O)(=O)c2ccc(C)cc2)ccc2c1OCO2	150 to 151
CC(C)CC(=O)Nc1cccc(-c2ccnc3c(-c4ccc5c(c4)OCO5)cnn23)c1	172 to 173
COC(=O)COc1ccc(C(=O)C(C)Br)cc1Cl (stereo unspecified)	63 to 65
CC(C)(C)OC(=O)CC(=O)c1ccco1	74 to 75
CC1(C)CC(=O)c2c(ncc3[nH]c4ccccc4c23)C1	224 to 225
Cc1cccc(-c2nc3cccnn3c2-c2ccnc(NC(=O)NC(C)C)c2)c1	193 to 195
CCOC(=O)c1c(CSc2ccccc2)n(C)c2cc(Br)c(O)cc12	196 to 197
O=C(O)CCCC/C=C(\c1cccnc1)c1ccc2c(c1)OCO2	90 to 91
CN1CC2Cc3ccc(Cl)cc3C(C)(O)C2C1 (stereo unspecified)	125 to 130
CN(C)Cc1cc(C(C)(C)c2cc(CN(C)C)c(O)c(CN(C)C)c2)cc(CN(C)C)c1O	88 to 90
CCOC(=O)C(C)Oc1ccc2c(=O)c(-c3ccccc3)coc2c1 (stereo unspecified)	165 to 166
CCCOc1ccccc1-c1ccc(C#N)c(=O)[nH]1	244 to 247
O=C(O)COc1cccc2c1CCc1sc(S(=O)(=O)C(c3ccccc3)c3ccccc3)nc1-2	219 to 221
Cn1cccc(O)c1=O	129 to 131
CCOC(=O)CCCC(=O)c1ccc(-c2ccc(C)cc2)s1	120 to 121
O=C1C(O)=C(Br)C(=O)c2ccc(F)cc21	183
COC(=O)CCN1CCC(=C2c3ccn(C)c3CCn3ncnc32)CC1	139
Cc1cncc(-c2nc(C(F)(F)F)cn2-c2ccc(S(N)(=O)=O)cc2)c1	242 to 243
Cc1c2c(nc3ccccc13)CCN(C(=O)C(C)C)CC2	107
Nc1ccc2nc3c(c(N)c2c1)C(=O)CCC3	310
Cn1c(C=NO)cnc1[N+](=O)[O-]	203 to 205

Compound	melting point [°C]
CNS(=O)(=O)c1ccc(C2=C(c3ccccc3)C(=O)C(C)(C)O2)cc1Cl	136 to 137
CCCCCCCOc1ccc(CCC(CO)(CCC)NC(=O)c2cc([N+](=O)[O-])cc([N+](=O)[O-])c2)cc1 (single isomer, unassigned; (-))	115 to 116
CCCc1nc2ccccn2c(=O)c1-c1ccc(Cl)cc1	109 to 110
O=C(COC(=O)c1ccccc1Nc1ccnc2c(C(F)(F)F)cccc12)OC1CCN(Cc2ccccc2)CC1	99 to 100
COc1ccc(C=O)c(Cl)c1OCc1ccccc1	86 to 88
Clc1c(NC2=NCCO2)ccc2[nH]ncc12	223 to 225
CC(C(=O)O)c1ccc2c(c1)Sc1ncccc1CC2=O (stereo unspecified)	150 to 151
CN(C)C=C(SCCN1C(=O)c2ccccc2C1=O)C(=O)c1ccc(F)cc1	108 to 111
COc1ccccc1CCc1c(CO)ccc(OC)c1OC	108 to 109
Fc1ccc2c(c1)NCc1c(-c3noc(C4CC4)n3)ncn1-2	263 to 265
O=C(NCC(F)(F)F)C1(CCCCc2ccc(NS(=O)(=O)c3ccccc3[N+](=O)[O-])cc2)c2ccccc2-c2ccccc21	60 to 64
CN1CCN(c2cc(Cl)cc3c2c(=O)n(Cc2ccccc2)c(=O)n3C)CC1	132 to 136
Nc1cccc(-c2ccc(C3=CCCN(Cc4ccccc4)C3)cc2)n1	270 to 272
Cn1c(=O)c2conc2n(-c2ccccc2)c1=O	219 to 221
CC1(C)C2=C(Cl)C(=O)C(Cl)=CC2=Nc2ccc(O)cc21	< 250
Clc1nc2ccccc2c2occc12	120 to 122
C=Cc1nc2cc(-c3ccc(C#N)cc3)ccc2o1	143 to 144
C=CC1(C)OC(=O)c2ccc(Oc3ccc(C(F)(F)F)cc3Cl)cc21 (stereo unspecified)	71 to 73
CCOC(=O)Cc1nc(-c2ccc(F)cc2)oc1C(C)C	59 to 60
CCCCCCCCCCCCCCCCCCC(CO)CC1(C)OCCO1 (stereo unspecified)	34 to 35
CCOP(=O)(CNc1cc(Oc2ccc(C(F)(F)F)cn2)ccc1[N+](=O)[O-])OCC	74 to 76
CCOC(=O)c1cnc2ccc(OC)cc2c1O	> 260
CCCCCCCCCc1cc2ccc(C(=O)O)cc2[nH]1	166 to 169
